# From patent US11155550B2, “Histone deacetylase inhibitors and methods of use thereof” (Reaction Biology Corp., priority 2018, dated 2021)
# Target: T1, Recombinant human HDAC6 (Homo sapiens, UniProt Q9UBN7)
# T1 construct: full-length, MW=180 kDa; GST tag (N); made in house; host or cells: Sf9 insect cells (baculovirus)
# T1 sequence (Q9UBN7 1-1215): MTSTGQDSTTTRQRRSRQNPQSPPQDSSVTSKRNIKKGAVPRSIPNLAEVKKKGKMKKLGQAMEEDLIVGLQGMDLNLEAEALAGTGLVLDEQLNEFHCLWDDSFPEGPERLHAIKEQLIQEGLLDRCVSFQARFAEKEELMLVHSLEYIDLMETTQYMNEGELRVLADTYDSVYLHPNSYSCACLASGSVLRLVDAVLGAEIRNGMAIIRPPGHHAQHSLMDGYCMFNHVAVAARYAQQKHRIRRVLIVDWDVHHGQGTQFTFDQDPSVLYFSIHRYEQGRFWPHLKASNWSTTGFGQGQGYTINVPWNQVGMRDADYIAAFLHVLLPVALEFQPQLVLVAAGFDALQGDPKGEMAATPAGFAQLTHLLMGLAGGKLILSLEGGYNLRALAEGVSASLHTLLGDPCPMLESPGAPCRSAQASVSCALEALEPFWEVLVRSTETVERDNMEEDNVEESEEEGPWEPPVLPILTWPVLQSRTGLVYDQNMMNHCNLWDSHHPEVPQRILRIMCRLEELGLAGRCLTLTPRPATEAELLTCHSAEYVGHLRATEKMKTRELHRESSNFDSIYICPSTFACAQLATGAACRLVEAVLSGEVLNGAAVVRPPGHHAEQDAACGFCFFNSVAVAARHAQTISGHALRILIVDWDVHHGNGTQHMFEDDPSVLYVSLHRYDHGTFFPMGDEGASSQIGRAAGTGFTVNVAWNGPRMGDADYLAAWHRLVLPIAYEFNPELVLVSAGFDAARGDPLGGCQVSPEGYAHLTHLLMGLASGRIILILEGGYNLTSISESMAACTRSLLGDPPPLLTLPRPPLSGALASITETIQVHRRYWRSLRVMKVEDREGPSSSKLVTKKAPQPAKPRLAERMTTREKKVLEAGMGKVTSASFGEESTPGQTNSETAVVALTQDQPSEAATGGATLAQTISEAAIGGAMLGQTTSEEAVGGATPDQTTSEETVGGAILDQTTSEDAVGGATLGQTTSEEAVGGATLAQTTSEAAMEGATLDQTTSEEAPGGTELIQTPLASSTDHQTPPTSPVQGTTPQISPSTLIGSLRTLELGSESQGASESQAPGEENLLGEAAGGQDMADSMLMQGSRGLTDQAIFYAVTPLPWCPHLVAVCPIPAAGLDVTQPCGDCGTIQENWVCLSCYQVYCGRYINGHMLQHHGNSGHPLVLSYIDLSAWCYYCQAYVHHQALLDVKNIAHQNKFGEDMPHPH
# Assay: Biochemical HDAC enzymatic assay, HDAC6
# Conditions: Table 1; incubation time 10 min
# Method: Incubation time for HDAC1/2 is 120 min, and 10 min for other HDACs.
# Recombinant human HDAC6 (GenBank Accession No. BC069243), full-length, MW=180 kDa, was expressed by baculovirus in Sf9 insect cells using an N-terminal GST tag.
# (§1) • I. Compound handling: Testing compounds were dissolved in 100% DMSO to a specific concentration. The serial dilution was conducted by epMotion 5070 in DMSO. • II. HDAC reaction buffer: 50 mM Tris-HCl, pH8.0, 137 mM NaCl, 2.7 mM KCl, and 1 mM MgCl2, Added fresh: 1 mg/ml BSA, 1% DMSO. • III. Substrate: Fluorogenic HDAC General Substrate for HDAC1, 2, 3, 6, 10, 11 ans Sirt1, 2 and 3: Arg-His-Lys-Lys(Ac); HDAC8 only substrate: Arg-His-Lys(Ac)-Lys(Ac); Class2A Substrate (HDAC4, 5, 7 and 9): Acetyl-Lys(trifluoroacetyl)-AMC; Sirt5 substrate: Ac-Lys(succinyl)-AMC. • IV. General Reaction Procedure: (Standard IC50 determination) • a. Delivered 2× enzyme in wells of reaction plate except No Enzyme (No En) control wells. Add buffer in No En wells. • b. Delivered compounds in 100% DMSO into the enzyme mixture by Acoustic technology (Echo550; nanoliter range). Spin down and pre-incubation. • c. Delivered 2× Substrate Mixture (Fluorogenic HDAC Substrate and co-factor (500 μM of Nicotinamide adenine dinucleotide (NAD^+) in all Sirt assay) in all reaction wells to initiate the reaction. Spin and shake. • d. Incubated for 1-2 hr. at 30° C. with seal. • e. Added Developer with Trichostatin A (or TMP269 or NAD^+) to stop the reaction and to generate fluorescent color. • f. Fluorescence was read (excitatory, 360; emission, 460) using the EnVision Multilabel Plate Reader (Perkin Elmer) • g. Endpoint reading was taken for analysis after the development reaches plateau. • V. Data Analysis: The percentages of enzyme activity (relative to DMSO controls) and IC50 values were calculated using the GraphPad Prism 4 program based on a sigmoidal dose-response equation.
# The inhibitory activities of HDAC of compounds of the invention were determined using biochemical HDAC assays. Compounds were tested at the indicated doses in the biochemical assays of HDAC1, HDAC2, HDAC3, HDAC4, HDAC5, HDAC6, HDAC7, HDAC8, HDAC9, HDAC10, or HDAC11 enzyme. The curve fit and IC50 values were calculated using the GraphPad Prism 4 program based on a sigmoidal dose-response equation.
# as §1, with “[…]” for “μM”, “equation. […]” for “equation.”
row,IC50 [nM],SMILES
1,> 20000,"CN1CCC2(CC1)CN(c1ccc(C(=O)Nc3cc(-c4cccs4)ccc3N)cn1)C(=O)O2 [Example 4, N-(2-amino-5-(thiophen-2-yl)phenyl)-6-(8-methyl-2-oxo-1-oxa-3,8-diazaspiro[4.5]decan-3-yl)nicotinamide]"
2,> 20000,"Nc1ccc(-c2cccs2)cc1NC(=O)c1ccc(CN2C(=O)CCCC23CNC3)cc1 [Example 1, N-(2-amino-5-(thiophen-2-yl)phenyl)-4-((6-oxo-2,5-diazaspiro[3.5]nonan-5-yl)methyl)benzamide]"
3,> 20000,"Nc1ccc(-c2ccc(F)cc2)cc1NC(=O)c1ccc(N2CC3(CCOCC3)OC2=O)nc1 [Example 5, N-(4-amino-4′-fluoro-[1,1′-biphenyl]-3-yl)-6-(2-oxo-1,8-dioxa-3-azaspiro[4.5]decan-3-yl)nicotinamide]"
4,> 20000,"Nc1ccc(-c2cccs2)cc1NC(=O)c1ccc(CN2C(=O)CCC23CCNCC3)cc1 [Example 2, N-(2-amino-5-(thiophen-2-yl)phenyl)-4-((2-oxo-1,8-diazaspiro[4.5]decan-1-yl)methyl)benzamide]"
5,> 10000,"Nc1cc(F)ccc1NC(=O)c1ccc(CN2C(=O)CCCC23CNC3)cc1 [Example 3, N-(2-amino-4-fluorophenyl)-4-((6-oxo-2,5-diazaspiro[3.5]nonan-5-yl)methyl)benzamide]"
6,> 20000,"Nc1ccc(-c2cccs2)cc1NC(=O)c1ccc(N2CC3(CCNCC3)CCC2=O)nc1 [Example 6, N-(2-amino-5-(thiophen-2-yl)phenyl)-6-(3-oxo-2,9-diazaspiro[5.5]undecan-2-yl)nicotinamide]"

# Same assay, conditions: Table 2; incubation time 10 min
row,IC50 [nM],SMILES
1,4.5,O=C(NO)c1ccc(CN2C(=O)C3(CCOC3)c3ccccc32)cc1 (centres unmarked) [Compound Example 9]
2,205,"O=C(NO)c1ccc(CN2C(=O)c3ccccc3C23CCNCC3)cc1 [Compound Example 10, N-hydroxy-4-((3-oxospiro[isoindoline-1,4′-piperidin]-2-yl)methyl)benzamide]"
3,35,"CN(C)C(=O)N1CCC2(CC1)c1ccccc1C(=O)N2Cc1ccc(C(=O)NO)cc1 [Compound Example 11, 2-(4-(hydroxycarbamoyl)benzyl)-N,N-dimethyl-3-oxospiro[isoindoline-1,4′-piperidine]-1′-carboxamide]"
4,26,"O=C(NO)c1ccc(CN2C(=O)c3ccccc3C23CCN(C2CC2)CC3)cc1 [Compound Example 12, 4-((1′-cyclopropyl-3-oxospiro[isoindoline-1,4′-piperidin]-2-yl)methyl)-N-hydroxybenzamide]"
5,29,"O=C(NO)c1ccc(CN2C(=O)c3ccccc3C23OCCO3)cc1 [Compound Example 8, N-hydroxy-4-((3-oxospiro[isoindoline-1,2′-[1,3]dioxolan]-2-yl)methyl)benzamide]"
